Laboratory results from ChEMBL document CHEMBL5291721, “A preclinical secondary pharmacology resource illuminates target-adverse drug reaction associations of marketed drugs” (Nat Commun, 2023).

How the values were obtained:
[1] = target: T1, Androgen receptor (Homo sapiens, UniProt P10275)
T1 sequence (P10275 whole entry): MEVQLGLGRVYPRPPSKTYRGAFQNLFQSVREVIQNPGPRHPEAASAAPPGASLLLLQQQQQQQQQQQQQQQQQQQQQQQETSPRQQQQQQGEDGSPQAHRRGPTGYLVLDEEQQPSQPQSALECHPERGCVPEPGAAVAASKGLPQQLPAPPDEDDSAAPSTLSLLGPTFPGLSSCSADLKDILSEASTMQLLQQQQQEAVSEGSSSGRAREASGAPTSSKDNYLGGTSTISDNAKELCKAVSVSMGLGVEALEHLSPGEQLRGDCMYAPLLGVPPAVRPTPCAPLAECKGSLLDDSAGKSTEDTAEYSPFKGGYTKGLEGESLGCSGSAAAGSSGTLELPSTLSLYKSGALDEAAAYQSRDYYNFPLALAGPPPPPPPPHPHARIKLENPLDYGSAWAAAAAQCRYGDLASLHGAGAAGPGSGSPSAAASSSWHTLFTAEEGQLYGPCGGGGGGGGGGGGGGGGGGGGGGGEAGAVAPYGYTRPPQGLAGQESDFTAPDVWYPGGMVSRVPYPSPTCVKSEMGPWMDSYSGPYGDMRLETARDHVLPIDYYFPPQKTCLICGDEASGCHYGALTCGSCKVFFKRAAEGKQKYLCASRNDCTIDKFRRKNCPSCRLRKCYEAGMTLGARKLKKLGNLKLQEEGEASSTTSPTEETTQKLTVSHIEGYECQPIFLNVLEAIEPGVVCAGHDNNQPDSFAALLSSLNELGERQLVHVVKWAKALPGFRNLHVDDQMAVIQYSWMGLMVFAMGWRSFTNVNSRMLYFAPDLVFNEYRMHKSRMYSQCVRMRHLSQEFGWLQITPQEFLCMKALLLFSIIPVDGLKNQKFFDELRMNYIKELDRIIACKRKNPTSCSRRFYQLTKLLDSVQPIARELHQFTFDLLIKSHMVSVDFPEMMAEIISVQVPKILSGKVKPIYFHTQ

[2] = target: T2, Thromboxane A2 receptor (Homo sapiens, UniProt P21731); type: functional
T2 sequence (P21731 whole entry): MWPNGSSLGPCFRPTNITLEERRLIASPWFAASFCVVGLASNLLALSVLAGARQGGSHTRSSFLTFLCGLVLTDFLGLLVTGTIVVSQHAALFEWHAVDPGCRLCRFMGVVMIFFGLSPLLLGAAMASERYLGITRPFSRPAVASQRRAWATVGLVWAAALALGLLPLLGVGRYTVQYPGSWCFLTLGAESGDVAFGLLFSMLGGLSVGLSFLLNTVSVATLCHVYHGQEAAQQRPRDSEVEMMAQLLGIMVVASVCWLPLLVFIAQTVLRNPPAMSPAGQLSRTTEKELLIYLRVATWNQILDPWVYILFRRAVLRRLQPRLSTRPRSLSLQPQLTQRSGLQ

[3] = target: T2, Thromboxane A2 receptor; type: functional, cell-based
[4] = target: Cannabinoid receptor 1 (Homo sapiens, UniProt P21554); type: functional
[5] = target: T3, Muscarinic acetylcholine receptor M5 (Homo sapiens, UniProt P08912)
T3 sequence (P08912 whole entry): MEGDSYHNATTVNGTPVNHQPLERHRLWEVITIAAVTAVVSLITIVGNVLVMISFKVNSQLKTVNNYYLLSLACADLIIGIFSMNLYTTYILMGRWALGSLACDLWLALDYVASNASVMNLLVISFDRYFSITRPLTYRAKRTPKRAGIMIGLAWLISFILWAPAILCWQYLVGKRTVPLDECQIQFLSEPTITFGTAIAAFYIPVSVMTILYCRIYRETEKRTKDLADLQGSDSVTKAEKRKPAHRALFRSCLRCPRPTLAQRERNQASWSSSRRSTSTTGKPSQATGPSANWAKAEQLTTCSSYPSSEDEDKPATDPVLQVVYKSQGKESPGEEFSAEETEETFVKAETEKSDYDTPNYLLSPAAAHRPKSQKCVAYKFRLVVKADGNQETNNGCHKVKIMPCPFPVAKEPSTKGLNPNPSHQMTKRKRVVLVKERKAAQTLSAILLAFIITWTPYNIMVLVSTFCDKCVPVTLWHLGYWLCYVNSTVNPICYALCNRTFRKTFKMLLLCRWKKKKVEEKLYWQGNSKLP

[6] = target: T4, Adenosine receptor A1 (Homo sapiens, UniProt P30542)
T4 sequence (P30542 whole entry): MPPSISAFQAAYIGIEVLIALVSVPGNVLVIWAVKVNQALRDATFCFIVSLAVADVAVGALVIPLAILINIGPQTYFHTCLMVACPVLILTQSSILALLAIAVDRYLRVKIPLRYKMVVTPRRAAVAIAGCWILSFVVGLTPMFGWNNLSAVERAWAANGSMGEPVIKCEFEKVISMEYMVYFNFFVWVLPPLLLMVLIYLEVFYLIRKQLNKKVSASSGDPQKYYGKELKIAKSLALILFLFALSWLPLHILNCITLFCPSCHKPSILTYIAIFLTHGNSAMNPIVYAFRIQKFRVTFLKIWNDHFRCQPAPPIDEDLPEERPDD

[7] = target: Hydroxycarboxylic acid receptor 2 (Homo sapiens, UniProt Q8TDS4)
[8] = target: 5-hydroxytryptamine receptor 2A (Homo sapiens, UniProt P28223)
[9] = target: T5, Estrogen receptor (Homo sapiens, UniProt P03372); type: functional
T5 sequence (P03372 whole entry): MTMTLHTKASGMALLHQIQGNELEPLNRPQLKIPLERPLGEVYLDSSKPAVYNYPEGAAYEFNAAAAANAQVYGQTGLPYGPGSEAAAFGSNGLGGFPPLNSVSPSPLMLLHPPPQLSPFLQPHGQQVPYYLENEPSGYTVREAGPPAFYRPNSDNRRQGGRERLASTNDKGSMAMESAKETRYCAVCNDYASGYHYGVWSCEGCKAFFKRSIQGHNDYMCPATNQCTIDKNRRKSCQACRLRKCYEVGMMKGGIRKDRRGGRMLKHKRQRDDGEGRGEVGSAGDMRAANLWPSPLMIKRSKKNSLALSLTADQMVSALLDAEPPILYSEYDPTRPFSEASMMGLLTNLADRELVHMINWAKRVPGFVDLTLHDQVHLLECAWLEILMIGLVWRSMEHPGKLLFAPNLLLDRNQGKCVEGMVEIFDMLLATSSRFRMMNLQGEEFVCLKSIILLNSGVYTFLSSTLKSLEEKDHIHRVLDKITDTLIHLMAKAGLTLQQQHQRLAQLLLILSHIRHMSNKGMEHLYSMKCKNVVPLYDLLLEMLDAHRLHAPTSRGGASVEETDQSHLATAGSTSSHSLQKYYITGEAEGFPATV
Further: assay procedure not described here.

Chain of Cannabinoid receptor 1 (P21554 whole entry): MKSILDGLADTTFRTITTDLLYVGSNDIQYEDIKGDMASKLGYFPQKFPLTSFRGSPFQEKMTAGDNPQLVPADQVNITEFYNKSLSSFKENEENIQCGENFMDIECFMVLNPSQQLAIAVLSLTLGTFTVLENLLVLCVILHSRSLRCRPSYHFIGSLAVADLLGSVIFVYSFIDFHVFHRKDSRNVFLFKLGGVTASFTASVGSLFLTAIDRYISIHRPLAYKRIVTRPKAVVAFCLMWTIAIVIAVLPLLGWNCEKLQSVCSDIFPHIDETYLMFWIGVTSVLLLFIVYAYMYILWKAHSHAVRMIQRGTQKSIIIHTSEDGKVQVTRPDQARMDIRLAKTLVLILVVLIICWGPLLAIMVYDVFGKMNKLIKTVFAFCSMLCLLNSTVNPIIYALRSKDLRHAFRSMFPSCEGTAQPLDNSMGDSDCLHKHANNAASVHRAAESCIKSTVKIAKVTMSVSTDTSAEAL
Chain of 5-hydroxytryptamine receptor 2A (P28223 whole entry): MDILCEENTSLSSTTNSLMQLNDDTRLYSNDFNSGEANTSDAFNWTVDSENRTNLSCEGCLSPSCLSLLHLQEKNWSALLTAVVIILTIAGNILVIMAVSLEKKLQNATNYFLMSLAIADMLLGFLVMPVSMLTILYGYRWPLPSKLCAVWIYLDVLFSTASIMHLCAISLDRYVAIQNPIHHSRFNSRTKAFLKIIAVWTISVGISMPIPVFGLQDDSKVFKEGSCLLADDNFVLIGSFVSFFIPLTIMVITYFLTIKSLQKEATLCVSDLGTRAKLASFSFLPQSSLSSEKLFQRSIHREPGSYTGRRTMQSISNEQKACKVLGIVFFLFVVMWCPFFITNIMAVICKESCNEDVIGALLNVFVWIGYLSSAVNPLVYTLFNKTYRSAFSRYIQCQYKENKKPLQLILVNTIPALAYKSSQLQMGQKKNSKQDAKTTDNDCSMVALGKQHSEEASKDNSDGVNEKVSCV
Chain of Hydroxycarboxylic acid receptor 2 (Q8TDS4 whole entry): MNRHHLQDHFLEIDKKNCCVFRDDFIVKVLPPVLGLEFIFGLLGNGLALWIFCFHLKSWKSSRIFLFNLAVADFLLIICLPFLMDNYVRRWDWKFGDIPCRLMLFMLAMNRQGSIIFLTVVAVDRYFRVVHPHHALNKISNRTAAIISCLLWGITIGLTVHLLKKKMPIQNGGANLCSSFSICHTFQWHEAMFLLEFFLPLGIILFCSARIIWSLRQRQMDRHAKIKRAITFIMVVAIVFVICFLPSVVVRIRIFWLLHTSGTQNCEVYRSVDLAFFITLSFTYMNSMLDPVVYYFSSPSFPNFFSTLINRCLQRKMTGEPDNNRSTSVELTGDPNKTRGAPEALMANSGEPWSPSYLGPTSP

## CCC(=O)c1c(O)cc(O)cc1O [FLOPROPIONE]
[1]
  AC50: > 30 µM

## CC(C)C(=O)Nc1ccc([N+](=O)[O-])c(C(F)(F)F)c1 [FLUTAMIDE]
[2]
  AC50: > 10 µM
[3]
  AC50: 6 µM

## NS(=O)(=O)c1cc2c(cc1Cl)NCNS2(=O)=O [HYDROCHLOROTHIAZIDE]
[4]
  AC50: > 10 µM
[5]
  AC50: > 10 µM

## CC(C)Cc1ccc(CC(=O)O)cc1 [IBUFENAC]
[2]
  AC50: > 30 µM
[3]
  AC50: > 30 µM

## OC[C@@H](O)[C@@H](O)[C@H](O)[C@H](O)CO [MANNITOL]
[6]
  AC50: > 30 µM

## CCN(CC)CCNC(=O)c1cc(Cl)c(N)cc1OC [METOCLOPRAMIDE]
[7]
  AC50: > 10 µM

## CCc1nn(CCCN2CCN(c3cccc(Cl)c3)CC2)c(=O)n1CCOc1ccccc1 [NEFAZODONE]
[4]
  AC50: > 10 µM

## OCCN1CCN(CCCN2c3ccccc3C=Cc3ccccc32)CC1 [OPIPRAMOL]
[6]
  AC50: > 30 µM

## CCc1ccc(CCOc2ccc(CC3SC(=O)NC3=O)cc2)nc1 (centres undefined) [PIOGLITAZONE]
[4]
  AC50: > 10 µM

## CC(C(=O)O)c1ccc(N2CC=CC2)c(Cl)c1 (centres undefined) [PIRPROFEN]
[8]
  AC50: > 10 µM
[1]
  AC50: > 30 µM
[7]
  AC50: > 10 µM

## CC[C@H](C)C(=O)O[C@H]1C[C@H](O)C=C2C=C[C@H](C)[C@H](CC[C@@H](O)C[C@@H](O)CC(=O)O)[C@H]21 [PRAVASTATIN]
[9]
  AC50: > 30 µM

## NC(=O)c1cnccn1 [PYRAZINAMIDE]
[4]
  AC50: > 10 µM
[2]
  AC50: > 30 µM
[3]
  AC50: > 30 µM

## O=C(NC[C@H]1CN(c2ccc(N3CCOCC3=O)cc2)C(=O)O1)c1ccc(Cl)s1 [RIVAROXABAN]
[6]
  AC50: > 30 µM

## Cc1cc2c(cc1CC(=O)c1sccc1S(=O)(=O)Nc1onc(C)c1Cl)OCO2 [SITAXENTAN]
[6]
  AC50: > 30 µM

## CC(C)OC(=O)[C@H](C)N[P@](=O)(OC[C@H]1O[C@@H](n2ccc(=O)[nH]c2=O)[C@](C)(F)[C@@H]1O)Oc1ccccc1 [SOFOSBUVIR]
[1]
  AC50: > 30 µM

## Cc1ccc(O)c2ncccc12 [TILIQUINOL]
[1]
  AC50: > 30 µM

## CC(=O)OC[C@H]1O[C@@H](n2ccc(=O)[nH]c2=O)[C@H](OC(C)=O)[C@@H]1OC(C)=O [URIDINE TRIACETATE]
[1]
  AC50: > 30 µM

## OCc1cc([C@@H](O)CNCCCCCCOCCOCc2c(Cl)cccc2Cl)ccc1O [VILANTEROL]
[9]
  AC50: > 30 µM

## CCOC(=O)N[C@@H]1CC[C@@H]2[C@@H](C1)C[C@H]1C(=O)O[C@H](C)[C@H]1[C@H]2/C=C/c1ccc(-c2cccc(F)c2)cn1 [VORAPAXAR]
[1]
  AC50: > 30 µM

## O=C(CCCCCCC(=O)Nc1ccccc1)NO [VORINOSTAT]
[8]
  AC50: > 10 µM
[4]
  AC50: > 10 µM
[5]
  AC50: > 10 µM
